Reference: ChEMBL document CHEMBL4385603 (J Med Chem, 2019)

How the values were obtained:
[1] = target: T1, Induced myeloid leukemia cell differentiation protein Mcl-1 (Homo sapiens, UniProt Q07820)
Description: Inhibition of FITC-labeled Bim peptide binding to His6-tagged MBP-fused Mcl-1 (unknown origin) in presence of 1% fetal bovine serum by fluorescence polarization assay

[2] = target: T1, Induced myeloid leukemia cell differentiation protein Mcl-1; remark: listed apart in the source
Description: Inhibition of FITC-labeled Bim peptide binding to His6-tagged MBP-fused Mcl-1 (unknown origin) by fluorescence polarization assay

K562 = assay: cells; settings: Homo sapiens, K562, 72 h
Description: Antiproliferative activity against Mcl1-insensitive human K562 cells assessed as cell growth inhibition after 72 hrs by Celltiter-glo luminescence assay

NCI-H929 = assay: cells; settings: Homo sapiens, NCI-H929, 72 h
Description: Antiproliferative activity against Mcl1-sensitive human NCI-H929 cells assessed as cell growth inhibition after 72 hrs by Celltiter-glo luminescence assay

Bcl-2-like protein 1 = Bcl-2-like protein 1 (Homo sapiens, UniProt Q07817)
Chain of Bcl-2-like protein 1 (Q07817 whole entry): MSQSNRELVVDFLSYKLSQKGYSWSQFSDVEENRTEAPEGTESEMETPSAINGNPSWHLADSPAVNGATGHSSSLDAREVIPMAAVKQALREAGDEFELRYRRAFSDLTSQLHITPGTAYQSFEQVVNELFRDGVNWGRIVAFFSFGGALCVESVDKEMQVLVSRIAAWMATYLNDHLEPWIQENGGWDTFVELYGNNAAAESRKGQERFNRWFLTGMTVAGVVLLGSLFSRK
Description: Inhibition of FITC-labeled Bak peptide binding to Bcl-xL (unknown origin) after 0.5 hrs by fluorescence polarization assay

[3] = target: Apoptosis regulator Bcl-2 (Homo sapiens, UniProt P10415)
Chain of Apoptosis regulator Bcl-2 (P10415 whole entry): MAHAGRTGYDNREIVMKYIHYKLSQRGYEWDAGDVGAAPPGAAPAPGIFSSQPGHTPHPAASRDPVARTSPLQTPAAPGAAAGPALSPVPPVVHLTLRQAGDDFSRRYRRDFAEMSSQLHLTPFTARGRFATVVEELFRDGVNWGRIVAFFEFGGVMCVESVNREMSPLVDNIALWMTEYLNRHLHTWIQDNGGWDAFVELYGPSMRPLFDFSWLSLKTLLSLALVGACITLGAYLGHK
Description: Inhibition of FITC-labeled Bak peptide binding to Bcl-2 (unknown origin) after 0.5 hrs by fluorescence polarization assay

[4] = target: T1, Induced myeloid leukemia cell differentiation protein Mcl-1; remark: listed apart in the source
Description: Inhibition of FITC-labeled Bak peptide binding to MBP-fused Mcl-1 (unknown origin) measured after 3 hrs in presence of 1% fetal bovine serum by TR-FRET assay

[5] = target: T1, Induced myeloid leukemia cell differentiation protein Mcl-1; remark: listed apart in the source
Description: Inhibition of FITC-labeled Bak peptide binding to MBP-fused Mcl-1 (unknown origin) measured after 3 hrs by TR-FRET assay

T1 sequence (Q07820 whole entry): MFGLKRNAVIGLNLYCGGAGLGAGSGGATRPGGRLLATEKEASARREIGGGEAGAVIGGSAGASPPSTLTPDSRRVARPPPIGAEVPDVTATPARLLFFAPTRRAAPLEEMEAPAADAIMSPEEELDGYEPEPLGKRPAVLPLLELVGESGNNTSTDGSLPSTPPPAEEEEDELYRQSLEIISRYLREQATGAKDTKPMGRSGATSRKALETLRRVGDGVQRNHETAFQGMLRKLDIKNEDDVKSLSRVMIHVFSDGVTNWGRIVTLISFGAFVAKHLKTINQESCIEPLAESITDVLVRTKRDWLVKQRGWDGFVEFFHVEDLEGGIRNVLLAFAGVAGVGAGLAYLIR

Compound | Ki [1] [nM] | Ki [2] [nM] | further results
Cc1cc(OCCCc2c3n(c4c(-c5c(C)nn(C)c5C)c(Cl)ccc24)CCC(C)NC3=O)cc(C)c1Cl (configuration not stated) | > 200 | 70 | –
Cc1cc(OCCCc2c3n(c4c(-c5c(C)nn(C)c5C)c(Cl)ccc24)[C@H](C)CN(c2cn(C)c4cc(C(=O)O)ccc24)C3=O)cc(C)c1Cl | – | – | GI50 (K562): > 12500 nM; GI50 (NCI-H929): 290 nM; Ki (Bcl-2-like protein 1): > 40000 nM; Ki [3]: 500 nM; Ki [4]: 0.38 nM; Ki [5]: 0.081 nM
Cc1cc(OCCCc2c3n(c4c(-c5c(C)nn(C)c5C)c(Cl)ccc24)[C@H](C)CN(c2cc(C(=O)O)c4ccn(C)c4c2)C3=O)cc(C)c1Cl | – | – | GI50 (K562): > 12500 nM; GI50 (NCI-H929): 820 nM; Ki (Bcl-2-like protein 1): > 40000 nM; Ki [3]: 770 nM; Ki [4]: 1.5 nM; Ki [5]: 0.21 nM
Cc1cc(OCCCc2c3n(c4c(-c5c(C)nn(C)c5C)c(Cl)ccc24)C[C@@H](C)NC3=O)cc(C)c1Cl | 151 | 27 | –
Cc1cc(OCCCc2c3n(c4c(-c5c(C)nn(C)c5C)c(Cl)ccc24)CC(C)CNC3=O)cc(C)c1Cl (configuration not stated) | 150 | 42 | –
Cc1cc(OCCCc2c3n(c4c(-c5c(C)nn(C)c5C)c(Cl)ccc24)[C@H](C)CN(c2ccc(C(=O)O)cc2)C3=O)cc(C)c1Cl | – | – | GI50 (K562): > 12500 nM; GI50 (NCI-H929): 4000 nM; Ki (Bcl-2-like protein 1): > 40000 nM; Ki [3]: 690 nM; Ki [4]: 4.5 nM; Ki [5]: 1.3 nM
Cc1cc(OCCCc2c3n(c4c(-c5c(C)nn(C)c5C)c(Cl)ccc24)C[C@H](C)N(Cc2ccc(C(=O)O)o2)C3=O)cc(C)c1Cl | 150 | 8.7 | –
Cc1cc(OCCCc2c3n(c4c(-c5c(C)nn(C)c5C)c(Cl)ccc24)[C@H](C)CN(c2cccc(C(=O)O)c2)C3=O)cc(C)c1Cl | – | – | GI50 (K562): > 12500 nM; GI50 (NCI-H929): 4400 nM; Ki (Bcl-2-like protein 1): > 40000 nM; Ki [3]: 990 nM; Ki [4]: 2.6 nM; Ki [5]: 1.4 nM
Cc1cc(OCCCc2c3n(c4c(-c5c(C)nn(C)c5C)c(Cl)ccc24)C[C@@H](C)N(Cc2ccc(C(=O)O)o2)C3=O)cc(C)c1Cl | 39 | 5.9 | –
Cc1cc(OCCCc2c3n(c4c(-c5c(C)nn(C)c5C)c(Cl)ccc24)[C@H](C)CN(c2cc(C(=O)O)cc4c2OCO4)C3=O)cc(C)c1Cl | – | – | GI50 (K562): > 12500 nM; GI50 (NCI-H929): 1700 nM; Ki (Bcl-2-like protein 1): 25000 nM; Ki [3]: 630 nM; Ki [4]: 1.4 nM; Ki [5]: 0.42 nM
Cc1cc(OCCCc2c3n(c4c(-c5c(C)nn(C)c5C)c(Cl)ccc24)[C@H](C)CN(c2cccc4c(C(=O)O)cccc24)C3=O)cc(C)c1Cl | – | – | GI50 (K562): 2500 nM; Ki (Bcl-2-like protein 1): 26000 nM; Ki [3]: 380 nM; Ki [4]: 0.77 nM; Ki [5]: 0.33 nM
Cc1cc(OCCCc2c3n(c4c(-c5c(C)nn(C)c5C)c(Cl)ccc24)C(C)CCNC3=O)cc(C)c1Cl (configuration not stated) | > 200 | 43 | –
Cc1cc(OCCCc2c3n(c4c(-c5c(C)nn(C)c5C)c(Cl)ccc24)[C@H](C)CN(Cc2ccc(C(=O)O)o2)C3=O)cc(C)c1Cl | 26 | 1 | –
Cc1cc(OCCCc2c3n(c4c(-c5c(C)nn(C)c5C)c(Cl)ccc24)[C@@H](C)CN(Cc2ccc(C(=O)O)o2)C3=O)cc(C)c1Cl | 193 | 22 | –
Cc1cc(OCCCc2c3n(c4c(-c5c(C)nn(C)c5C)c(Cl)ccc24)CCCNC3=O)cc(C)c1Cl | 101 | 12 | –
Cc1cc(OCCCc2c3n(c4c(-c5c(C)nn(C)c5C)c(Cl)ccc24)[C@H](C)CN(c2cc(C(=O)O)cc4c2ccn4C)C3=O)cc(C)c1Cl | – | – | GI50 (K562): > 12500 nM; GI50 (NCI-H929): 2100 nM; Ki (Bcl-2-like protein 1): > 40000 nM; Ki [3]: 630 nM; Ki [4]: 6.8 nM; Ki [5]: 1.3 nM
Cc1cc(OCCCc2c3n(c4c(-c5c(C)nn(C)c5C)c(Cl)ccc24)CCNC3=O)cc(C)c1Cl | > 200 | 35 | –
Cc1cc(OCCCc2c3n(c4c(-c5c(C)nn(C)c5C)c(Cl)ccc24)C[C@H](C)NC3=O)cc(C)c1Cl | 145 | 73 | –

More lines, main results first:

Ki [1] [nM] | Ki [2] [nM] | Compound | further results
54 | 9.6 | Cc1cc(OCCCc2c3n(c4c(-c5c(C)nn(C)c5C)c(Cl)ccc24)C[C@H](C)N(Cc2ccc(C(=O)O)cc2)C3=O)cc(C)c1Cl | –
52 | 9.6 | Cc1cc(OCCCc2c3n(c4c(-c5c(C)nn(C)c5C)c(Cl)ccc24)CCN(Cc2cccc(C(=O)O)c2)C3=O)cc(C)c1Cl | –
170 | 37 | Cc1cc(OCCCc2c3n(c4c(-c5c(C)nn(C)c5C)c(Cl)ccc24)[C@@H](C)CN(Cc2cccc(C(=O)O)c2)C3=O)cc(C)c1Cl | –
97 | 9.9 | Cc1cc(OCCCc2c3n(c4c(-c5c(C)nn(C)c5C)c(Cl)ccc24)C[C@H](C)N(Cc2cccc(C(=O)O)c2)C3=O)cc(C)c1Cl | –
191 | 35 | Cc1cc(OCCCc2c3n(c4c(-c5c(C)nn(C)c5C)c(Cl)ccc24)[C@@H](C)CN(Cc2ccc(C(=O)O)cc2)C3=O)cc(C)c1Cl | –
42 | 6.6 | Cc1cc(OCCCc2c3n(c4c(-c5c(C)nn(C)c5C)c(Cl)ccc24)CCC(C)N(Cc2ccc(C(=O)O)cc2)C3=O)cc(C)c1Cl (configuration not stated) | –
51 | 7.2 | Cc1cc(OCCCc2c3n(c4c(-c5c(C)nn(C)c5C)c(Cl)ccc24)CCN(Cc2ccc(C(=O)O)cc2)C3=O)cc(C)c1Cl | –
53 | 1.8 | Cc1cc(OCCCc2c3n(c4c(-c5c(C)nn(C)c5C)c(Cl)ccc24)C[C@@H](C)N(Cc2ccc(C(=O)O)cc2)C3=O)cc(C)c1Cl | –
> 200 | 12 | Cc1cc(OCCCc2c3n(c4c(-c5c(C)nn(C)c5C)c(Cl)ccc24)CCC(C)N(Cc2cccc(C(=O)O)c2)C3=O)cc(C)c1Cl (configuration not stated) | –
67 | 2.1 | Cc1cc(OCCCc2c3n(c4c(-c5c(C)nn(C)c5C)c(Cl)ccc24)C[C@@H](C)N(Cc2cccc(C(=O)O)c2)C3=O)cc(C)c1Cl | –
26 | 1.1 | Cc1cc(OCCCc2c3n(c4c(-c5c(C)nn(C)c5C)c(Cl)ccc24)[C@H](C)CN(Cc2cccc(C(=O)O)c2)C3=O)cc(C)c1Cl | –
120 | 8.2 | Cc1cc(OCCCc2c3n(c4c(-c5c(C)nn(C)c5C)c(Cl)ccc24)CCC(C)N(Cc2ccc(C(=O)O)o2)C3=O)cc(C)c1Cl (configuration not stated) | –
81 | 7.6 | Cc1cc(OCCCc2c3n(c4c(-c5c(C)nn(C)c5C)c(Cl)ccc24)CC(C)CN(Cc2ccc(C(=O)O)o2)C3=O)cc(C)c1Cl (configuration not stated) | –
137 | 5.8 | Cc1cc(OCCCc2c3n(c4c(-c5c(C)nn(C)c5C)c(Cl)ccc24)CCN(Cc2ccc(C(=O)O)o2)C3=O)cc(C)c1Cl | –
22 | 7.1 | Cc1cc(OCCCc2c3n(c4c(-c5c(C)nn(C)c5C)c(Cl)ccc24)CC(C)CN(Cc2ccc(C(=O)O)cc2)C3=O)cc(C)c1Cl (configuration not stated) | –
144 | 11 | Cc1cc(OCCCc2c3n(c4c(-c5c(C)nn(C)c5C)c(Cl)ccc24)CC(C)CN(Cc2cccc(C(=O)O)c2)C3=O)cc(C)c1Cl (configuration not stated) | –
6.7 | 0.77 | Cc1cc(OCCCc2c3n(c4c(-c5c(C)nn(C)c5C)c(Cl)ccc24)[C@H](C)CN(Cc2ccc(C(=O)O)cc2)C3=O)cc(C)c1Cl | –
